Assay results taken from the CheMixHub viscosity set.
± gives the uncertainty stated by the source.

Experiment: xn = mol fraction of the nth substance listed
Settings: 101 kPa

c1ccncc1 + O
viscosity [mPa·s]
Settings	298.15 K	303.15 K	308.15 K	313.15 K	318.15 K
x1 = 0.0201	1.122 ± 0.0096	0.9952 ± 0.0087	0.8906 ± 0.008	0.8042 ± 0.0076	0.7251 ± 0.007
x1 = 0.0503	1.379 ± 0.011	1.214 ± 0.0098	1.078 ± 0.009	0.9651 ± 0.0083	0.8727 ± 0.0077
x1 = 0.0701	1.532 ± 0.011	1.342 ± 0.01	1.187 ± 0.0095	1.058 ± 0.0087	0.9504 ± 0.0081
x1 = 0.0999	1.725 ± 0.013	1.505 ± 0.011	1.325 ± 0.01	1.175 ± 0.0093	1.05 ± 0.0086
x1 = 0.1203	1.837 ± 0.013	1.6 ± 0.012	1.405 ± 0.011	1.244 ± 0.0097	1.11 ± 0.0089
x1 = 0.1499	1.972 ± 0.014	1.713 ± 0.012	1.501 ± 0.011	1.326 ± 0.01	1.18 ± 0.0093
x1 = 0.1701	2.05 ± 0.014	1.778 ± 0.013	1.556 ± 0.011	1.373 ± 0.01	1.22 ± 0.0095
x1 = 0.1999	2.139 ± 0.015	1.853 ± 0.013	1.619 ± 0.012	1.426 ± 0.011	1.266 ± 0.0098
x1 = 0.2201	2.189 ± 0.015	1.897 ± 0.013	1.657 ± 0.012	1.467 ± 0.011	1.302 ± 0.01
x1 = 0.2502	2.235 ± 0.015	1.934 ± 0.014	1.688 ± 0.012	1.485 ± 0.011	1.316 ± 0.01
x1 = 0.2701	2.253 ± 0.015	1.949 ± 0.014	1.701 ± 0.012	1.496 ± 0.011	1.326 ± 0.01
x1 = 0.2999	2.265 ± 0.016	1.96 ± 0.014	1.711 ± 0.012	1.505 ± 0.011	1.334 ± 0.01
x1 = 0.3198	2.26 ± 0.016	1.957 ± 0.014	1.709 ± 0.012	1.504 ± 0.011	1.333 ± 0.01
x1 = 0.35	2.235 ± 0.015	1.937 ± 0.014	1.694 ± 0.012	1.492 ± 0.011	1.324 ± 0.01
x1 = 0.4002	2.15 ± 0.015	1.87 ± 0.013	1.64 ± 0.012	1.45 ± 0.011	1.289 ± 0.01
x1 = 0.4499	2.023 ± 0.014	1.77 ± 0.013	1.56 ± 0.012	1.384 ± 0.01	1.236 ± 0.0097
x1 = 0.5002	1.871 ± 0.013	1.648 ± 0.012	1.461 ± 0.011	1.304 ± 0.01	–
x1 = 0.5998	1.559 ± 0.012	1.395 ± 0.011	1.255 ± 0.0098	1.134 ± 0.0091	–
x1 = 0.7002	1.297 ± 0.01	1.177 ± 0.0094	1.073 ± 0.0088	0.9812 ± 0.0083	–
x1 = 0.8004	1.109 ± 0.0091	1.018 ± 0.0085	0.9375 ± 0.0081	0.8659 ± 0.0077	–
x1 = 0.8999	0.983 ± 0.0084	0.9101 ± 0.0079	0.8448 ± 0.0076	0.7862 ± 0.0072	–

CC(O)CCO (stereo not given) + NCCN
viscosity [mPa·s]
Settings	298.15 K	303.15 K	308.15 K	313.15 K	318.15 K
x1 = 0.0339	1.64 ± 0.04	1.4 ± 0.03	1.3 ± 0.03	1.21 ± 0.03	1.04 ± 0.02
x1 = 0.069	1.98 ± 0.04	1.66 ± 0.04	1.56 ± 0.03	1.42 ± 0.03	1.23 ± 0.03
x1 = 0.1053	2.43 ± 0.05	2.01 ± 0.04	1.82 ± 0.04	1.7 ± 0.04	1.42 ± 0.03
x1 = 0.1429	3.03 ± 0.06	2.47 ± 0.05	2.24 ± 0.05	2.05 ± 0.04	1.71 ± 0.04
x1 = 0.1819	3.82 ± 0.08	3.07 ± 0.07	2.73 ± 0.06	2.54 ± 0.05	2.05 ± 0.04
x1 = 0.2223	4.9 ± 0.1	3.88 ± 0.08	3.4 ± 0.07	3.08 ± 0.07	2.49 ± 0.05
x1 = 0.2642	6.37 ± 0.14	4.97 ± 0.11	4.3 ± 0.09	3.85 ± 0.08	3.09 ± 0.07
x1 = 0.3078	8.35 ± 0.18	6.46 ± 0.14	5.45 ± 0.12	4.85 ± 0.1	3.81 ± 0.08
x1 = 0.353	11.2 ± 0.2	8.5 ± 0.18	7.1 ± 0.15	6.21 ± 0.13	4.83 ± 0.1
x1 = 0.4001	15.1 ± 0.3	11.2 ± 0.2	9.15 ± 0.19	7.91 ± 0.17	6.04 ± 0.13
x1 = 0.4491	20.4 ± 0.4	14.9 ± 0.3	12 ± 0.3	10.2 ± 0.2	7.56 ± 0.16
x1 = 0.5001	27.3 ± 0.6	19.6 ± 0.4	15.4 ± 0.3	13.1 ± 0.3	9.61 ± 0.2
x1 = 0.5533	36 ± 0.8	25.4 ± 0.5	19.7 ± 0.4	16.4 ± 0.3	12 ± 0.3
x1 = 0.6088	46.1 ± 1	32.1 ± 0.7	24.8 ± 0.5	20.4 ± 0.4	14.8 ± 0.3
x1 = 0.6667	56.3 ± 1.2	39.4 ± 0.8	29.9 ± 0.6	24.5 ± 0.5	18.2 ± 0.4
x1 = 0.7273	66.7 ± 1.4	47.4 ± 1	35.9 ± 0.8	28.7 ± 0.6	21.5 ± 0.5
x1 = 0.7908	77.5 ± 1.7	56 ± 1.2	41.7 ± 0.9	32.4 ± 0.7	24.4 ± 0.5
x1 = 0.8572	85.7 ± 1.9	62 ± 1.3	46.2 ± 1	35.8 ± 0.8	26.9 ± 0.6
x1 = 0.9269	91.6 ± 2.1	66.1 ± 1.4	49.3 ± 1	38.2 ± 0.8	28.6 ± 0.6
